Results reported in PMC7591571, “Identification of a juvenile-hormone signaling inhibitor via high-throughput screening of a chemical library” (Scientific Reports, 2020).

Key:
[1] = test system: T1, JH receptor, methoprene-tolerant protein (Met) / SRC, endogenous in BmN_JF&AR cells; assay: kJHRE luciferase reporter assay in stable BmN_JF&AR cells; type: cell-based; details: inhibition of 1 nM JH I response; 25 °C; 20 h; competitive antagonist-like; pathway read-out, direct binding to receptor not demonstrated; read-out: EC50 (the source's name)
T1 construct: gene Met1; endogenous receptor of BmN cells; receptor not overexpressed; Met paralogue not specified

[2] = test system: T1, JH receptor, methoprene-tolerant protein (Met) / SRC, endogenous in BmN_JF&AR cells; assay: as above; type: cell-based; details: agonist, 25 °C, 20 h, pathway read-out

Row | SMILES | IC50 [1] [nM] | EC50 [2] [nM]
1 | CC(C)(C)c1ccc(OCCn2cncn2)c(Cl)c1 [JHSI48, N-[2-(4-tert-butyl-2-chlorophenoxy)ethyl]-1H-1,2,4-triazole] | 320 | 
2 | CC/C(=C\CC/C(C)=C/C(=O)OC)CC[C@H]1O[C@@]1(C)CC [JH I] |  | 0.37
